The test system of data set [1] is Uterine relaxation. Nature of the data set: Uterine relaxation on anesthetized rats. The data set is classed as in vivo. As to conditions: Rattus norvegicus, iv, read-out: Uterine relaxation ED50 i.v. As to the method:
(§1) Uterine relaxation was investigated on anesthetized rats. The intravenous ED50 of uterine relaxation was determined in ug/kg (50% of the tested animals react) and the (undesirable) increase in heart rate at the ED50 value was also determined. The comparison compound was fenoterol.

In data set [2] the test system is heart rate. Nature of the data set: Increase in heart rate at the ED50 of uterine relaxation on anesthetized rats. The data set is classed as in vivo. As to the method:
as §1

For data set [3], the system named is acetylcholine bronchospasm. Kind of data set: Bronchospasmolysis: influence on acetylcholine bronchospasm in guinea pigs under urethane anaesthesia, body plethysmography. The data set is classed as in vivo. As to conditions: Cavia porcellus. As for the experimental part:
1. Bronchospasmolysis The activity was tested on guinea pigs under urethane anaesthesia. Body plethysmography was used to determine the influence on acetylcholine bronchospasm after intravenous and oral application.

Data set [4] in a line: Acute toxicity, LD50 in mice. To be noted: mouse, in vivo.
The mark [5] stands for this setting: anesthetized rats, 50% of the tested animals react.
Setting [6] is: intravenous, read-out: Broncholysis ED50 intravenous.
[7] abbreviates: oral, read-out: Broncholysis ED50 oral.

SMILES strings stand for the structures. Read-outs that look alike come from different tables or passages of the source.

The term ED50 denotes the dose that gives a 50% effect, or the effect in half of the subjects. As usually defined, the LD50 is the dose at which mortality reaches 50%.

For `Cc1c(C(O)CNC(C)(C)CCn2nnc3ccccc32)ccc(O)c1O` (stereo not drawn) [Table II, 15th compound], the median effective dose (ED50) in data set [1] (setting [5]) is 0.44 µg/kg. Also, in data set [2] (rat, in vivo), the “Increase in heart rate in comparison with fenoterol” value (“Increase … with fenoterol” for short) was 2/3. Further, the “Increase in heart rate (beats per min.)” value in data set [2] (rat, in vivo, iv) is reported as 23 beats per min.

On to `CC(C)(CCn1cnc2ccccc21)NCC(O)c1ccc(O)cc1Cl` (stereo not drawn) [Table II, 21st compound], for which the ED50 came out at 7.6 µg/kg in data set [3] (setting [6]) and 190 µg/kg in data set [3] (setting [7]).

In the case of `CC(C)(CCn1cnc2ccccc21)NCC(O)c1ccc(O)cc1F` (stereo not drawn) [Example 6, 1-(2-Fluoro-4-hydroxy-phenyl)-2-[4-(1-benzimidazolyl)-2-methyl-2-butylamino]-ethanol], the ED50 in data set [3] (setting [6]) worked out at 3.6 µg/kg; in data set [3] (setting [7]), 7 µg/kg. Besides, the LD50 in data set [4] (iv) worked out at 29000 µg/kg; in data set [4] (po), 300000 µg/kg.

In the case of `CC(C)(CCn1cnc2ccccc21)NCC(O)c1ccc(O)c(NC(N)=O)c1` (stereo not drawn) [Table III, 15th compound], the results for the 50% effective dose (ED50) in data set [3] (setting [6]) and in data set [3] (setting [7]) were 0.9 µg/kg and 14 µg/kg, respectively.

`CC(C)(CCn1cnc2ccccc21)NCC(O)c1ccc(O)cc1` (stereo not drawn) [Table III 10th compound]: in data set [1] (setting [5]), the ED50 amounted to 0.82 µg/kg. In addition, the “Increase … with fenoterol” value in data set [2] (rat, in vivo) is recorded as 1/2. Also, the “Increase in heart rate (beats per min.)” value in data set [2] (rat, in vivo, iv) is reported as 19 beats per min.

For the compound `CC(C)(C)NCC(O)c1ccc(O)c(CO)c1` (stereo not drawn) [Salbutamol, reference compound], the figures for the ED50 in data set [3] (setting [6]) and in data set [3] (setting [7]) were 9.2 µg/kg and 1000 µg/kg, respectively.

For `CC(C)(CCn1cnc2ccccc21)NCC(O)c1ccc(O)c(CO)c1` (stereo not drawn) [Table III, 16th compound], the values for the ED50 in data set [3] (setting [6]) and in data set [3] (setting [7]) were 1.2 µg/kg and 7.6 µg/kg, respectively.

`CC(C)(CCn1cnc2ccccc21)NCC(O)c1ccc(O)c2c1OCC(=O)N2` (stereo not drawn) [Table III, 24th compound]: the ED50 in data set [3] (setting [7]) worked out at 5.4 µg/kg.

For the compound `CC(Cc1ccc(O)cc1)NCC(O)c1cc(O)cc(O)c1` (stereo not drawn) [Fenoterol, reference compound], the ED50 in data set [1] was 0.45 µg/kg. For the same compound, the “Increase … with fenoterol” value in data set [2] (at the ED50 of uterine relaxation, fenoterol = 1, rats) turned out to be 1. Besides, in data set [2] (at the ED50 of uterine relaxation, i.v., anesthetized rats), the “Increase in heart rate (beats per min.)” value came to 36 beats per min.

As for `CC(C)(CCCn1cnc2ccccc21)NCC(O)c1ccc(O)c(NS(C)(=O)=O)c1` (stereo not drawn) [Table II, 24th compound], the ED50 in data set [1] (setting [5]) was determined as 0.5 µg/kg. For the same compound, in data set [2] (rat, in vivo), the “Increase … with fenoterol” value was 1/2. The “Increase in heart rate (beats per min.)” value in data set [2] (rat, in vivo, iv) worked out at 18 beats per min.

As to `CC(=O)Nc1cc(C(O)CNC(C)(C)CCn2cnc3ccccc32)ccc1O` (stereo not drawn) [Table II, 16th compound], the 50% effective dose (ED50) in data set [3] (setting [6]) came to 1.8 µg/kg; in data set [3] (setting [7]), 66 µg/kg.
